Test results from patent publication US9315475B2 (MERCK SHARP & DOHME CORP., priority 2011, dated 2016).

What follows are compounds tested against T1, wildtype HIV-1 protease (Human immunodeficiency virus type 1 group M subtype B, UniProt P04585) (assay: Assay for inhibition of microbial expressed HIV protease (Pepcleav)). Conditions: wild type HIV-1 protease expressed in E. coli, peptide substrate, pH 5.5; mean of at least two independent experiments; read-out: Pepcleav.
T1 construct: the wildtype HIV-1 protease (which was expressed in Escherichia coli); made in house; host or cells: Escherichia coli
Assay type: biochemical
Procedure, shortened: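 E. coli-expressed wild-type HIV-1 protease (20 pM) preincubated 30 min at room temperature with inhibitor in pH 5.5 sodium acetate/NaCl/BSA buffer, then 400 μM Val-Ser-Gln-Asn-(βnaphthyl)Ala-Pro-Ile-Val added for 1 h at 30 °C. Quenched with formic acid; product quantified by LC-MS/MS peak area, indinavir internal standard.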
COC(=O)N[C@H](C(=O)Nc1cncnc1CC[C@@H]1CN[C@H](COC(=O)NCC(F)(F)F)CO1)C(c1ccccc1)c1ccccc1 [Example 37, Nα-(methoxycarbonyl)-β-phenyl-N-(4-{2-[(2R,5S)-5-({[(2,2,2-trifluoroethyl)carbamoyl]oxy}methyl)morpholin-2-yl]ethyl}pyrimidin-5-yl)-L-phenylalaninamide] showed an IC50 of 180 nM.
O=C(NCC(F)(F)F)OC[C@@H]1CO[C@H](CCc2c(F)cncc2NC(=O)[C@@H](NC(=O)OCC(F)(F)F)C(c2ccc(F)cc2)c2ccc(F)cc2)CN1 [Example 141, 4-Fluoro-β-(4-fluorophenyl)-N-(5-fluoro-4-{2-[(2R,5S)-5-({[(2,2,2-trifluoroethyl)carbamoyl]oxy}methyl)morpholin-2-yl]ethyl}pyridin-3-yl)-Nα-[(2,2,2-trifluoroethoxy)carbonyl]-L-phenylalaninamide] was tested, and the IC50 was 180 nM.
In the case of COC(=O)N[C@H](C(=O)Nc1ccccc1CC[C@@H]1CN[C@H](CNS(=O)(=O)c2ccccc2)CO1)C(c1ccccc1)c1ccccc1 [Example 44, Nα-(methoxycarbonyl)-β-phenyl-N-(2-{2-[(2R,5R)-5-{[(phenylsulfonyl)amino]methyl}morpholin-2-yl]ethyl}phenyl)-L-phenylalaninamide], the IC50 is reported as 26 nM.
COC(=O)N[C@H](C(=O)Nc1cccc(F)c1CC[C@@H]1CN[C@H](COC(=O)NCC(F)(F)F)CO1)[C@H](c1ccc(F)cc1)c1cccc(OC)c1 [Example 306, (βR)-4-fluoro-N-(3-fluoro-2-{2-[(2R, 5S)-5-({[(2,2,2-trifluoroethyl)carbamoyl]oxy}methyl)morpholin-2-yl]ethyl}phenyl)-Nα-(methoxy-carbonyl)-β-(3-methoxyphenyl)-L-phenylalaninamide] was tested, and the IC50 was 170 nM.
For N[C@H](C(=O)Nc1cccc(F)c1CC[C@@H]1CN[C@H](COC(=O)NCC(F)(F)F)CO1)[C@H](c1ccc(F)cc1)c1ccc(Oc2ccccc2)cc1 [Example 230, (βS)-β-(4-fluorophenyl)-N-(3-fluoro-2-{2-[(2R,5S)-5-({[(2,2,2-trifluoroethyl)carbamoyl]oxy}methyl)morpholin-2-yl]ethyl}phenyl)-O-phenyl-L-tyrosinamide], the IC50 was 180 nM.
COC(=O)N[C@H](C(=O)Nc1ccccc1CC[C@@H]1CN[C@H](CNC(=O)OC2CCOC2)CO1)C(c1ccccc1)c1ccccc1 (stereo partly drawn) [Example 84, Nα-(methoxycarbonyl)-β-phenyl-N-(2-{2-[(2R,5R)-5-({[(tetrahydrofuran-3-yloxy)carbonyl]amino}methyl)morpholin-2-yl]ethyl}phenyl)-L-phenylalaninamide] gave an IC50 of 670 nM.
Compound COC(=O)N[C@H](C(=O)Nc1ccccc1CC[C@@H]1CN[C@H](C(=O)NS(=O)(=O)c2ccccc2)CO1)C(c1ccccc1)c1ccccc1 [Example 10, Nα-(methoxycarbonyl)-β-phenyl-N-[2-(2-{(2R,5S)-5-[(phenylsulfonyl)carbamoyl]morpholin-2-yl}ethyl)phenyl]-L-phenylalaninamide] has an IC50 of 17 nM.
Work on COC(=O)N[C@H](C(=O)Nc1ccccc1CC[C@@H]1CN[C@H](COC(=O)NC(C2CC2)C(F)(F)F)CO1)C(c1ccccc1)c1ccccc1 (stereo partly drawn) [Example 31, N-(2-{2-[(2R,5S)-5-({[(1-cyclopropyl-2,2,2 trifluoroethyl)carbamoyl]oxy}methyl)morpholin-2-yl]ethyl}phenyl)-Nα-(methoxycarbonyl)-β-phenyl-L-phenylalaninamide] yielded an IC50 of 29 nM.
COC(=O)N[C@H](C(=O)Nc1ccccc1CC[C@@H]1CN[C@H](CNC(=O)c2cc(-c3ccccn3)[nH]n2)CO1)C(c1ccccc1)c1ccccc1 [Example 60, methyl N-[(1S)-1-benzhydryl-2-oxo-2-[[2-[2-[(2R,5R)-5-[[[5-(2-pyridyl)-1H-pyrazole-3-carbonyl]amino]methyl]morpholin-2-yl]ethyl]phenyl]amino]ethyl] carbamate] was tested, and the IC50 was 72 nM.
In the case of N[C@H](C(=O)Nc1cncc(F)c1CC[C@@H]1CN[C@H](COC(=O)N2CCOCC2)CO1)C(c1ccc(F)cc1)c1ccc(F)cc1 [Example 197, {(3S,6R)-6-[2-(3-fluoro-5-{[4-fluoro-β-(4-fluorophenyl)-L-phenylalanyl]amino}pyridin-4-yl)ethyl]morpholin-3-yl}methyl morpholine-4-carboxylate], the IC50 is reported as 68 nM.
COC(=O)N[C@H](C(=O)Nc1ccccc1CC[C@@H]1CN[C@H](CNC(=O)Nc2cc[nH]n2)CO1)C(c1ccccc1)c1ccccc1 [Example 43, methyl N-[(1S)-1-benzhydryl-2-oxo-2-[[2-[2-[(2R,5R)-5-[(1H-pyrazol-3-ylcarbamoylamino)methyl]morpholin-2-yl]ethyl]phenyl]amino]ethyl]carbamate] showed an IC50 of 96 nM.
CS(=O)(=O)CC[C@@H]1CO[C@H](COc2c(F)cccc2NC(=O)[C@@H](N)C(c2ccccc2)c2ccccc2)CN1 [Example 232, N-[3-fluoro-2-({(2S,5R)-5-[2-(methylsulfonyl)ethyl]morpholin-2-yl}methoxy)phenyl]-β-phenyl-L-phenylalaninamide] gave an IC50 of 150 nM.
COC(=O)N[C@H](C(=O)Nc1ccccc1CC[C@@H]1CN[C@H](Cn2ccnn2)CO1)C(c1ccccc1)c1ccccc1 [Example 66, Nα-(methoxycarbonyl)-β-phenyl-N-(2-{2-[(2R,5R)-5-(1H-1,2,3-triazol-1-ylmethyl)morpholin-2-yl]ethyl}phenyl)-L-phenylalaninamide] was tested, and the IC50 was 100 nM.
With COC(=O)N[C@H](C(=O)Nc1ccccc1CC[C@@H]1CN[C@H](CNS(=O)(=O)C2CC2)CO1)C(c1ccccc1)c1ccccc1 [Example 47, methyl N-[(1S)-1-benzhydryl-2-[[2-[2-[(2R,5R)-5-[(cyclopropyl-sulfonylamino)methyl]morpholin-2-yl]ethyl]phenyl]amino]-2-oxo-ethyl]carbamate] the IC50 was 84 nM.
For COC(=O)N[C@H](C(=O)Nc1cnccc1CC[C@@H]1CN[C@H](COC(=O)NCC(F)(F)F)CO1)C(c1ccccc1)c1ccccc1 [Example 34, Nα-(methoxycarbonyl)-β-phenyl-N-(4-{2-[(2R,5S)-5-({[(2,2,2-trifluoroethyl)carbamoyl]oxy}methyl)morpholin-2-yl]ethyl}pyridin-3-yl)-L-phenylalaninamide], the IC50 was 14 nM.
Work on COC(=O)N[C@H](C(=O)Nc1ccccc1CC[C@@H]1CN[C@H](CNC(=O)Nc2ccccn2)CO1)C(c1ccccc1)c1ccccc1 [Example 42, methyl N-[(1S)-1-benzhydryl-2-oxo-2-[[2-[2-[(2R,5R)-5-[(2-pyridylcarbamoylamino)methyl]morpholin-2-yl]ethyl]phenyl]amino]ethyl]carbamate] yielded an IC50 of 17 nM.
In the case of COC(=O)N[C@H](C(=O)Nc1ccccc1CC[C@@H]1CN[C@H](C(N)=O)CO1)C(c1ccccc1)c1ccccc1 [Example 11, methyl [(1S)-2-[(2-{2-[(2R,5S)-5-(aminocarbonyl)morpholin-2-yl]ethyl}phenyl)amino]-1-(diphenylmethyl)-2-oxoethyl]carbamate], the IC50 is reported as 80 nM.
For COC(=O)N[C@H](C(=O)Nc1ccccc1CC[C@@H]1CN[C@H](COC(=O)N[C@H]2COC[C@@H]2F)CO1)C(c1ccccc1)c1ccccc1 [Example 29, N-[2-(2-{(2R,5S)-5-[({[(3S,4R)-4-fluorotetrahydrofuran-3-yl]carbamoyl}oxy)methyl]morpholin-2-yl}ethyl)phenyl]-Nα-(methoxycarbonyl)-β-phenyl-L-phenylalaninamide], the IC50 was 18 nM.
Compound COC(=O)NCC(=O)Nc1ccccc1CC[C@@H]1CO[C@H](CCc2ccccc2NC(=O)[C@@H](NC(=O)OC)C(c2ccccc2)c2ccccc2)CN1 [Example 69, methyl N-[(1S)-1-benzhydryl-2-[[2-[2-[(2R,5R)-5-[2-[2-[[2-(methoxycarbonylamino)acetyl]amino]phenyl]ethyl]morpholin-2-yl]ethyl]phenyl]amino]-2-oxo-ethyl]carbamate] has an IC50 of 3.4 nM.
N[C@H](C(=O)Nc1cncc(F)c1CC[C@@H]1CN[C@H](COC(=O)N[C@@H]2COC[C@@H]2F)CO1)C(c1ccc(F)cc1)c1ccc(F)cc1 [Example 211] showed an IC50 of 12 nM.
CNC(=O)OC[C@@H]1CO[C@H](CCc2ccccc2NC(=O)[C@@H](NC(=O)OC)C(c2ccccc2)c2ccccc2)CN1 [Example 30] gave an IC50 of 32 nM.
Work on COC(=O)N[C@H](C(=O)Nc1ccccc1CC[C@@H]1CO[C@H](CCc2ccccc2NC(=O)[C@@H](NC(=O)OC)C(c2ccccc2)c2ccccc2)CN1)C(c1ccccc1)c1ccccc1 [Example 68, dimethyl [(2R,5R)-morpholine-2,5-diylbis {ethane-2,1-diylbenzene-2,1-diylimino[(2S)-1-oxo-3,3-diphenylpropane-1,2-diyl]}]biscarbamate] yielded an IC50 of 0.03 nM.
COC(=O)N[C@H](C(=O)Nc1ccccc1CC[C@@H]1CN[C@H](Cn2cc([Si](C)(C)C)nn2)CO1)C(c1ccccc1)c1ccccc1 [Example 65, Nα-(methoxycarbonyl)-β-phenyl-N-(2-{2-[(2R,5R)-5-{[4-(trimethylsilyl)-1H-1,2,3-triazol-1-yl]methyl}morpholin-2-yl]ethyl}phenyl)-L-phenylalaninamide] showed an IC50 of 43 nM.
Work on CCC[C@H](c1ccccc1)[C@H](N)C(=O)Nc1cccc(F)c1CC[C@@H]1CN[C@H](COC(=O)NCC(F)(F)F)CO1 [Example 228, (βR)-N-(3-fluoro-2-{2-[(2R,5S)-5-({[(2,2,2-trifluoroethyl)carbamoyl]oxy}methyl)morpholin-2-yl]ethyl}phenyl)-β-propyl-L-phenylalaninamide] yielded an IC50 of 190 nM.
With COC(=O)N[C@H](C(=O)Nc1ccccc1CC[C@@H]1CN[C@H](CSc2ccccc2)CO1)C(c1ccccc1)c1ccccc1 [Example 62, Nα-(methoxycarbonyl)-β-phenyl-N-[2-(2-{(2R,5S)-5-[(phenylsulfanyl)methyl]morpholin-2-yl}ethyl)phenyl]-L-phenylalaninamide] the IC50 was 130 nM.
